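A five-concentration, 48-hour dose response in 96-well plates underlies each endpoint, interpolated linearly between surrounding concentrations. At the TGI there is no net growth.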
Tests used:
Assay in all cases: NCI-60 cell line screen, 48 h
786-0 renal = tested on: 786-0 renal
A498 renal = tested on: A498 renal
A549 NSCLC = tested on: A549 NSCLC
ACHN renal = tested on: ACHN renal
BT-549 breast = tested on: BT-549 breast
CAKI-1 renal = tested on: CAKI-1 renal
CCRF-CEM leukemia = tested on: CCRF-CEM leukemia
COLO 205 colon = tested on: COLO 205 colon
DU-145 prostate = tested on: DU-145 prostate
EKVX NSCLC = tested on: EKVX NSCLC
HCC-2998 colon = tested on: HCC-2998 colon
HCT-116 colon = tested on: HCT-116 colon
HCT-15 colon = tested on: HCT-15 colon
HL-60(TB) leukemia = tested on: HL-60(TB) leukemia
HOP-62 NSCLC = tested on: HOP-62 NSCLC
HS 578T breast = tested on: HS 578T breast
HT29 colon = tested on: HT29 colon
IGROV1 ovarian = tested on: IGROV1 ovarian
K-562 leukemia = tested on: K-562 leukemia
KM12 colon = tested on: KM12 colon
LOX IMVI melanoma = tested on: LOX IMVI melanoma
M14 melanoma = tested on: M14 melanoma
MALME-3M melanoma = tested on: MALME-3M melanoma
MCF7 breast = tested on: MCF7 breast
MDA-MB-231 breast = tested on: MDA-MB-231 breast
MDA-MB-435 = tested on: MDA-MB-435
MDA-N = tested on: MDA-N
MOLT-4 leukemia = tested on: MOLT-4 leukemia
NCI-H226 lung = tested on: NCI-H226 lung
NCI-H23 lung = tested on: NCI-H23 lung
NCI-H460 lung = tested on: NCI-H460 lung
NCI-H522 lung = tested on: NCI-H522 lung
OVCAR-8 ovarian = tested on: OVCAR-8 ovarian
PC-3 prostate = tested on: PC-3 prostate
RPMI-8226 leukemia = tested on: RPMI-8226 leukemia
SF-268 CNS = tested on: SF-268 CNS
SF-295 CNS = tested on: SF-295 CNS
SF-539 CNS = tested on: SF-539 CNS
SK-MEL-28 melanoma = tested on: SK-MEL-28 melanoma
SK-MEL-5 melanoma = tested on: SK-MEL-5 melanoma
SK-OV-3 ovarian = tested on: SK-OV-3 ovarian
SN12C renal = tested on: SN12C renal
SNB-19 CNS = tested on: SNB-19 CNS
SNB-75 CNS = tested on: SNB-75 CNS
SR leukemia = tested on: SR leukemia
SW-620 colon = tested on: SW-620 colon
T-47D breast = tested on: T-47D breast
TK-10 renal = tested on: TK-10 renal
UACC-257 melanoma = tested on: UACC-257 melanoma
UACC-62 melanoma = tested on: UACC-62 melanoma
UO-31 renal = tested on: UO-31 renal
HOP-92 NSCLC = tested on: HOP-92 NSCLC
NCI/ADR-RES ovarian = tested on: NCI/ADR-RES ovarian
OVCAR-3 ovarian = tested on: OVCAR-3 ovarian
OVCAR-4 ovarian = tested on: OVCAR-4 ovarian
OVCAR-5 ovarian = tested on: OVCAR-5 ovarian
SK-MEL-2 melanoma = tested on: SK-MEL-2 melanoma
U251 CNS = tested on: U251 CNS

## Cc1nn(C(=O)Cc2ccccc2)c2c1C(c1ccc(O)cc1)SC(N)=N2 (configuration not stated)
786-0 renal
  TGI: > 100 µM
A498 renal
  TGI: > 100 µM
A549 NSCLC
  TGI: > 100 µM
ACHN renal
  TGI: > 100 µM
BT-549 breast
  TGI: > 100 µM
CAKI-1 renal
  TGI: > 100 µM
CCRF-CEM leukemia
  TGI: > 100 µM
COLO 205 colon
  TGI: > 100 µM
DU-145 prostate
  TGI: > 100 µM
EKVX NSCLC
  TGI: > 100 µM
HCC-2998 colon
  TGI: > 100 µM
HCT-116 colon
  TGI: > 100 µM
HCT-15 colon
  TGI: > 100 µM
HL-60(TB) leukemia
  TGI: > 100 µM
HOP-62 NSCLC
  TGI: > 100 µM
HS 578T breast
  TGI: > 100 µM
HT29 colon
  TGI: > 100 µM
IGROV1 ovarian
  TGI: > 100 µM
K-562 leukemia
  TGI: > 100 µM
KM12 colon
  TGI: > 100 µM
LOX IMVI melanoma
  TGI: > 100 µM
M14 melanoma
  TGI: > 100 µM
MALME-3M melanoma
  TGI: > 100 µM
MCF7 breast
  TGI: > 100 µM
MDA-MB-231 breast
  TGI: > 100 µM
MDA-MB-435
  TGI: > 100 µM
MDA-N
  TGI: > 100 µM
MOLT-4 leukemia
  TGI: > 100 µM
NCI-H226 lung
  TGI: > 100 µM
NCI-H23 lung
  TGI: > 100 µM
NCI-H460 lung
  TGI: > 100 µM
NCI-H522 lung
  TGI: > 100 µM
OVCAR-8 ovarian
  TGI: > 100 µM
PC-3 prostate
  TGI: > 100 µM
RPMI-8226 leukemia
  TGI: > 100 µM
SF-268 CNS
  TGI: > 100 µM
SF-295 CNS
  TGI: > 100 µM
SF-539 CNS
  TGI: > 100 µM
SK-MEL-28 melanoma
  TGI: > 100 µM
SK-MEL-5 melanoma
  TGI: > 100 µM
SK-OV-3 ovarian
  TGI: > 100 µM
SN12C renal
  TGI: > 100 µM
SNB-19 CNS
  TGI: > 100 µM
SNB-75 CNS
  TGI: > 100 µM
SR leukemia
  TGI: > 100 µM
SW-620 colon
  TGI: > 100 µM
T-47D breast
  TGI: > 100 µM
TK-10 renal
  TGI: > 100 µM
UACC-257 melanoma
  TGI: > 100 µM
UACC-62 melanoma
  TGI: > 100 µM
UO-31 renal
  TGI: > 100 µM

## CO[C@]12CC(=O)C3(C(C[C@H]4CC5CC=C6C[C@@H](OC(C)=O)CC[C@]6(OC(C)=O)C5C[C@@]43C)C1)C1C[C@H]3[C@@H]4CC=C5C[C@@H](OC(C)=O)CC[C@]5(OC(C)=O)[C@H]4CC[C@]3(C)C12 (some centres not stated)
786-0 renal
  TGI: > 100 µM
A498 renal
  TGI: 66.1 µM
A549 NSCLC
  TGI: > 100 µM
ACHN renal
  TGI: > 100 µM
CAKI-1 renal
  TGI: 34.3 µM
CCRF-CEM leukemia
  TGI: > 100 µM
COLO 205 colon
  TGI: 12.7 µM
DU-145 prostate
  TGI: 41.4 µM
EKVX NSCLC
  TGI: 54.9 µM
HCC-2998 colon
  TGI: 41.6 µM
HCT-116 colon
  TGI: > 100 µM
HCT-15 colon
  TGI: > 100 µM
HL-60(TB) leukemia
  TGI: > 100 µM
HOP-62 NSCLC
  TGI: 37.9 µM
HOP-92 NSCLC
  TGI: > 100 µM
HS 578T breast
  TGI: 88.9 µM
HT29 colon
  TGI: 29.5 µM
IGROV1 ovarian
  TGI: 42.8 µM
K-562 leukemia
  TGI: > 100 µM
KM12 colon
  TGI: 54.3 µM
LOX IMVI melanoma
  TGI: 53.4 µM
M14 melanoma
  TGI: 47.2 µM
MALME-3M melanoma
  TGI: 35 µM
MCF7 breast
  TGI: > 100 µM
MDA-MB-231 breast
  TGI: 30.2 µM
MDA-MB-435
  TGI: > 100 µM
MDA-N
  TGI: 30.6 µM
MOLT-4 leukemia
  TGI: 63.3 µM
NCI-H23 lung
  TGI: 39 µM
NCI-H460 lung
  TGI: 47.8 µM
NCI-H522 lung
  TGI: 31.7 µM
NCI/ADR-RES ovarian
  TGI: 51.3 µM
OVCAR-3 ovarian
  TGI: 56.4 µM
OVCAR-4 ovarian
  TGI: 24.4 µM
OVCAR-5 ovarian
  TGI: 43.5 µM
OVCAR-8 ovarian
  TGI: > 100 µM
PC-3 prostate
  TGI: > 100 µM
RPMI-8226 leukemia
  TGI: > 100 µM
SF-268 CNS
  TGI: > 100 µM
SF-295 CNS
  TGI: 54 µM
SF-539 CNS
  TGI: 37.2 µM
SK-MEL-2 melanoma
  TGI: 41.1 µM
SK-MEL-28 melanoma
  TGI: > 100 µM
SK-MEL-5 melanoma
  TGI: 14.7 µM
SK-OV-3 ovarian
  TGI: > 100 µM
SN12C renal
  TGI: 29.8 µM
SNB-19 CNS
  TGI: 63.6 µM
SNB-75 CNS
  TGI: 94.2 µM
SR leukemia
  TGI: > 100 µM
SW-620 colon
  TGI: > 100 µM
T-47D breast
  TGI: 33.4 µM
TK-10 renal
  TGI: > 100 µM
U251 CNS
  TGI: > 100 µM
UACC-257 melanoma
  TGI: > 100 µM
UACC-62 melanoma
  TGI: 79 µM
UO-31 renal
  TGI: 52.6 µM

From PubChem BioAssay (NCI)
